The results in this text go back to US5858980A, “Peptide fragments of myelin basic protein” (Autoimmune, Inc., priority 1995, dated 1999).

The test system of experiment [1] is short term T-cell lines from peripheral blood mononuclear cells. The experiment in a line: T-cell line reactivity to MBP, PLP and MBP peptides (proliferation assay). It counts as cell-based, human. Particulars: for mean frequency of T-cell lines reactive to the peptide, MS vs controls (FIG. 1): MS patients compared with combined normal and other neurologic disease controls; for MEAN FREQUENCY Ag REACTIVE LINES: mean +/- SEM. The method, then:
A rapid T-cell cloning technique was used to examine whether there were immunodominant epitopes on human MBP reactive with Class II MHC phenotypes and the frequency of such reactivity. A total of 15,824 short term T-cell lines were generated from 51 human subjects by culturing peripheral blood mononuclear cells ([…]) with purified MBP (100 μg) followed 3 days later, and then every 3-4 days, by the addition of interleukin-2 (IL-2; from ABI, Columbia, Md.) and 2 units recombinant interleukin-4 (IL-4; Genzyme, Boston, Mass.). On Day 13 of culture, an aliquot from each line was tested for reactivity to MBP using the following proliferation assay: T-cell clones (1×10^5 cells/well) were plated in triplicate and cocultured with appropriate stimuli (i.e. 100 μg whole MBP or 5% IL-2) for 72 hours at 37° C., 90% humidity, 5% CO2, in 96 well flat bottomed microtiter plates (Costar). The cells were pulsed with 2 μCi [^3 H]TdR (2 Ci/mmole, New England Nuclear, Boston, Mass.) for the last 18 hours of culture. APCs were prepared by pulsing human Epstein-Barrvirus transformed human B-cells (the virus being commercially available from ATCC) or L-cells which are mouse cells transfected with human DR2 (L-cells are commercially available from ATCC under accession No. ATCC-CCL1 and can be transfected according to the method of Wilkinson, D. et al, J. Exp. Med., 1988, 167:1442-1458 using DNA encoding DR2 as per Wu, S. et al J. Immunol., 1987, 138:2953). B-cells or L-cells were used at 1×10^6 cells/well in complete media either in the presence or absence of 40 pM MBP or phospholipid protein (PLP) for 2 hours at 37° C., washing twice with 4° C. Hanks (Whittaker), followed by irradiation with 5000 rad. at 4° C. To stimulate T-cells without accessory APCs, 2 μM of MBP, PLP, or the appropriate fragment was added directly to the cells for the duration of the culture: 48 hours, followed by pulsing […] and then harvesting. Ten thousand APC's were used for 100,000 T-cell clones.
T-cell lines shown to be reactive to MBP or PLP were then tested using the same technique for reactivity to overlapping oligopeptide 20-mers encompassing the human MBP sequence as shown in Table 1 above. MBP and PLP reactivity frequency analysis was performed on patients with definite, relapsing-remitting MS (as diagnosed by Magnetic Resonance Imaging (MRI) and clinical examination), as well as on subjects with other neurologic diseases and on normal subjects (all age- and sex-matched to the MS patients).

The subject of experiment [2] is actively induced EAE. Put plainly: suppression of actively induced EAE (MBP/CFA immunization). It is filed as in vivo, Lewis rats.
The mark [3] stands for this setting: other neurological disease (n = 10).

On to “143-168: human MBP fragment of amino acids 143-168, second immunodominant domain (RHGSKYLATASTMDHARHGFLPRHRD; UniProt P02686 143-168, looked up, fragment)”, for which the “mean frequency of T-cell lines reactive to the peptide, MS vs controls (FIG. 1)” value in experiment [1] was “both MS and control subjects showed high frequencies”. For the same molecule, the “MBP-reactive cell lines that reacted with either MBP residues 84-102 or 143-168” value in experiment [1] (cell lines from patients with MS) is reported as 70-80%. Besides, the “MBP-reactive T-cell lines that recognized either the 84-102 or the 143-168 peptide” value in experiment [1] (control groups) is recorded as “about 34%”. Moreover, the “Peptide Reactivity (Fraction of MBP-Reactive Lines)” value in experiment [1] (subject NS-dd, stimulus IL-2) is 1/2; in experiment [1] (subject NS-dd, stimulus MBP), 6/12; in experiment [1] (subject NS-jl, stimulus IL-2) it was 5/12; in experiment [1] (subject NS-kw, stimulus MBP), 5/8; in experiment [1] (subject five, stimulus IL-2), 5/6; in experiment [1] (subject five, stimulus MBP), 6/7. Further, the “Peptide Reactivity (Fraction of MBP-Reactive Lines)” value in experiment [1] (subject seven, stimulus IL-2) is on record as 2/3; in experiment [1] (subject seven, stimulus MBP), 5/8; in experiment [1] (subject six, stimulus IL-2), 1/2; in experiment [1] (subject three, stimulus IL-2), 2/2; in experiment [1] (subject three, stimulus MBP) it was 2/2; in experiment [1] (subject two, stimulus IL-2), 4/4. Moreover, the “Peptide Reactivity (Fraction of MBP-Reactive Lines)” value in experiment [1] (subject two, stimulus MBP) was 8/10.
On to “HHPARTAHYGSLPQKSEGRT [61-82, human MBP amino acid residues 61-82]”, for which the “mean frequency of T-cell lines reactive to the peptide, MS vs controls (FIG. 1)” value in experiment [1] is given as “Significant but less striking increases”.
As to “guinea pig MBP peptide 131-150: control guinea pig MBP peptide (DYKSKGFKGAHDAQGTLSKI; UniProt P25188 131-150, looked up, fragment)”, the “suppression of EAE via IV tolerization” value in experiment [2] (intravenous administration prior to immunization (FIG. 7)) was “did not suppress”. Moreover, the “suppression of EAE via oral tolerization” value in experiment [2] (oral administration prior to immunization (FIG. 7)) is “did not suppress”.

B1: PLP: proteolipid protein, myelin autoantigen (protein, UniProt P60201 2-277, looked up)
Myelin proteolipid protein: GLLECCARCLVGAPFASLVATGLCFFGVALFCGCGHEALTGTEKLIETYFSKNYQDYEYLINVIHAFQYVIYGTASFFFLYGALLLAEGFYTTGAVRQIFGDYKTTICGKGLSATVTGGQKGRGSRGQHQAHSLERVCHCLGKWLGHPDKFVGITYALTVVWLLVFACSAVPVYIYFNTWTTCQSIAFPSKTSASIGSLCADARMYGVLPWNAFPGKVCGSNLLSICKTAEFQMTFHLFIAAFVGAAATLVSLLTFMIAATYNFAVLKLMGRGTKF
For the molecule B1, the entries for the “#Ag REACTIVE LINES / TOTAL # LINES” value in experiment [1] (MS patients (n = 23)) and in experiment [1] (setting [3]) were 20/432 and 3/384, respectively. The “MEAN FREQUENCY Ag REACTIVE LINES” value is reported as 3.34 ± 1.56 in experiment [1] (MS patients (n = 23), per-subject reactive/total lines) and 0.9 ± 0.62 in experiment [1] (setting [3]).
